Results taken from ChEMBL document CHEMBL1777783, “The synthesis and biological evaluation of 2-amino-4,5,6,7,8,9-hexahydrocycloocta[b]thiophenes as allosteric modulators of the A1 adenosine receptor” (Bioorg Med Chem Lett, 2011).
Activity calls are given as the source filed them. No cut-off for these calls is given here.

Columns and labels:
[1] = molecular target: T1, Adenosine receptor A1 (Homo sapiens) (UniProt P30542); test: Allosteric modulation at human adenosine A1 receptor expressed in CHO FlpIn cells assessed as increase in EC50 concentration of N(6)-(R-phenylisopropyl)adenosine receptor agonist-induced ERK1/2 phosphorylation at 3 uM relative to control; assay type: functional, cell-based
T1 sequence (whole entry): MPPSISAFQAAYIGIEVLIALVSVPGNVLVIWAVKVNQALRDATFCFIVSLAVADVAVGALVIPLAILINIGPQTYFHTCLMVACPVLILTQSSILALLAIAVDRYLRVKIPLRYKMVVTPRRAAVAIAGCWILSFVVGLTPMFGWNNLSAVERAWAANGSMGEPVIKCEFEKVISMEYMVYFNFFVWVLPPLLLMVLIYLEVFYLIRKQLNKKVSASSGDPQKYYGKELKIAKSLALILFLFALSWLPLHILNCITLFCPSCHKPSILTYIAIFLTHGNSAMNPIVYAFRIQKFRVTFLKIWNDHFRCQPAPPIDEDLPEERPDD

[2] = molecular target: T1, Adenosine receptor A1 (Homo sapiens); test: Allosteric modulation at human adenosine A1 receptor expressed in CHO FlpIn cells assessed as increase in EC50 concentration of N(6)-(R-phenylisopropyl)adenosine receptor agonist-induced ERK1/2 phosphorylation at 10 uM relative to control; assay type: functional, cell-based
[3] = molecular target: T1, Adenosine receptor A1 (Homo sapiens); test: Allosteric modulation at human adenosine A1 receptor expressed in CHO FlpIn cells assessed as increase in ERK1/2 phosphorylation at 3 to 10 uM relative to control; assay type: cell-based
[4] = molecular target: T1, Adenosine receptor A1 (Homo sapiens); test: Allosteric modulation at human adenosine A1 receptor expressed in CHO FlpIn cells assessed as increase in leftward shift of N(6)-(R-phenylisopropyl)adenosine-mediated ERK1/2 phosphorylation curve at 0.1 to 10 uM; assay type: cell-based
[5] = molecular target: T1, Adenosine receptor A1 (Homo sapiens); test: Binding affinity to human adenosine A1 receptor allosteric site expressed in CHO FlpIn cells; assay type: cell-based

SMILES	Activity [1]	Activity [2]	Activity [3]	Activity [4]	pKb [5]
Nc1sc2c(c1C(=O)NCc1ccccc1)CCCCCC2	48%	50%	inactive	–	–
Cc1ccc(C(=O)c2c(N)sc3c2CCCCCC3)cc1	56%	75%	inactive	–	–
Nc1sc2c(c1C(=O)NNc1ccccc1)CCCCC2	44%	42%	inactive	–	–
Nc1sc2c(c1C(=O)c1ccccc1)CCCCCC2	49%	36%	inactive	–	–
Nc1sc2c(c1C(=O)NNc1ccccc1)CCCCCC2	47%	43%	inactive	–	–
Nc1sc2c(c1C(=O)c1cccc(C(F)(F)F)c1)CCCC2	73%	88%	Active	–	–
Cc1ccc(C(=O)c2c(N)sc3c2CCC3)cc1	50%	56%	inactive	–	–
Nc1sc2c(c1C(=O)NCc1cccc(Cl)c1)CCCCCC2	49%	47%	inactive	–	–
Nc1sc2c(c1C(=O)c1cccc(C(F)(F)F)c1)CCCCC2	53%	74%	inactive	–	–
Cc1ccc(C(=O)c2c(N)sc3c2CCCCC3)cc1	55%	68%	inactive	–	–
NC(=O)c1c(N)sc2c1CCCCCC2	48%	48%	inactive	–	–
NNC(=O)c1c(N)sc2c1CCCCCC2	48%	48%	inactive	–	–
NNC(=O)c1c(N)sc2c1CCCCC2	52%	51%	inactive	–	–
Nc1sc2c(c1C(=O)c1ccc(Cl)cc1)CCCCCC2	56%	63%	Active	–	–
Cc1ccc(C(=O)c2c(N)sc3c2CCCC3)cc1	70%	91%	Active	Active	5.1
Nc1sc2c(c1C(=O)c1cccc(C(F)(F)F)c1)CCCCCC2	57%	65%	inactive	Active	5.07
Nc1sc2c(c1C(=O)c1cccc(C(F)(F)F)c1)CCC2	75%	98%	Active	–	–
NC(=O)c1c(N)sc2c1CCCCC2	47%	50%	inactive	–	–
